Structures can show the parent of a compound that is named as a salt. Where two headings read alike, the source gives them in different places.
Experiments:
[1] = test system: male hooded Long-Evans rats; experiment: spontaneous mouse-killing (muricide) by rats; type: in vivo, rat (hooded Long-Evans); details: for ED50: Rattus norvegicus, sc
Source text: For the purpose of detecting new psychotropic substances with antiaggressive properties, pharmacologist have used several different models. One model used, the mouse-killing (muricide) by rats (Vogel, J. R. in Industrial Pharmacology, Vol. 2, Antidepressants, Stuart, F. and Lal, H., Ed., Futura Publishing Company, 1975, p. 99), is based on an existing interspecies aggression (Karli, P., Behaviour 10, 81 (1956)). This form of aggressive behaviour which is considered to be of predatory nature, is physiologically and topographically different from other forms of aggression (O'Boyle, M., Psychol. Bull. 81, 261 (1974)). Mousekilling is a spontaneous behaviour in some rat strains e.g. male hooded Long-Evans rats.
Male hooded Long-Evans rats placed in individual cages were used. By testing a number of rats, a colony of rats was obtained that killed a mouse whenever introduced into the rats' cage, by biting the mouse through the cervical spinal cord.
Each rat was tested for mouse-killing behaviour (killing a mouse within 5 minutes) prior to each experiment, thus serving as its own positive control. For each dose level 6 positive rats were selected and the test substance was administered by subcutaneous injection. Doses were selected to form a dose-response curve and the […] (ED50, mg/kg) was calculated by means of linear regression. The rats were tested at 1, and 2 hours after being injected subcutaneously. [drawing 9]

male NMRI mice [2] = experiment: isolation-induced aggressive behaviour; type: in vivo; details: Mus musculus, sc, read-out: ED50 (dose inhibiting aggressive behaviour among 50 percent of the pairs)
Source text: Male mice subjected to prolonged isolation develop aggressive behaviour against each other when paired (Yen, C. Y. et al., Arch. Int. Pharmacodyn. 123, 179, (1959); Valzelli, L., Adv. Pharmacol. 5, 79 (1967)). […] The clinical correlation of this test indicates tranquillizing and anxiolytic activities as well as antiaggressive properties as such (Duncan, R. L. et al., J. Med. Chem. 13, 1 (1970)).
This type of aggression is interesting because it is known that this kind of emotional behaviour might be located in limbic structures in the brain (MacLean, P. D., Psychosom. Med. 11, 338 (1949)).
Every week male NMRI mice, weighing 20-22 g, were isolated in Makrolon cages for three weeks with diet and water ad libitum. A piece of cardboard was placed between the cages to prevent visual contact.
To test aggressiveness the mice were paired in a neutral area, a beaker (14 cm high and diameter 14 cm). A pair is considered aggressive if both the animals show clear signs of fighting within 5 min. This fighting is characterized by biting and vocalization. As soon as fighting is seen, the mice are separated and brought to their home cage. […] Animals showing no aggression are discarded. […] The test substance is administered s.c. (0.2-0.4 ml/20 g). The mice are paired 0.5 h after the injection for trials of 5 min. duration.
The ED50 -value (mg/kg) reported is the dose inhibiting aggressive behaviour among 50 percent of the pairs 0.5 hour after drug administration.

mice (NMRI) = experiment: writhing test (acetic acid), analgetic properties; type: in vivo; details: Mus musculus, sc, 20 min before acetic acid i.p.; female mice; read-out: ED50 (dose blocking the writhing behaviour in 50% of the animals)
Procedure: The writhing test is a frequently used test of analgetic properties (Witkin, L. B. et al., J. Pharmacol. Exp. Ther. 133, 400 (1961)). If acetic acid (0.5%, 15 ml/kg) is injected intraperitoneally in mice (NMRI) they will without exception develop a writhing behaviour characterized by stretching their hind legs. The drugs to be tested were administered subcutaneously to 6 female mice at each dose 20 min. before the injection of the acetic acid. After 10 min. The behaviour of the mice was studied in 5 min. The ED50 value is the dose blocking the writhing behaviour in 50% of the animals during the 5 min. study period.

male NMRI mice [3] = details: general statement on the test; cited from earlier work
[4] = 1 hr after injection, read-out: ED50, spontaneous mouse-killing, 1 hr
[5] = read-out: ED50, spontaneous mouse-killing, s.c., 2 hr after injection
[6] = 0.5 hour after drug administration

Compound	ED50 [1, 4]	ED50 [1, 5]	ED50 (male NMRI mice [2]; [6])	ED50 (mice (NMRI))	also measured
CN(C)CCC=C1c2ccccc2CCc2ccccc21 [Amitriptyline]	> 10 mg/kg	6.4 mg/kg	5 mg/kg	–	–
CC(=O)N1CCN(CCCC(c2ccc(F)cc2)c2ccc(F)cc2)CC1 [B, 1-acetyl-4-[4,4-(di-fluorophenyl)butyl]piperazine]	> 10 mg/kg	> 10 mg/kg	10 mg/kg	–	pharmacological properties compared with compounds I ([1]; versus compounds I of the invention, in the tests of the application): inferior to the compounds I of the present invention
CN(C)CCCN1c2ccccc2Sc2ccc(Cl)cc21 [Chlorpromazine]	–	–	–	–	ED50 (male NMRI mice [2]; 0.5 h): 1.4 mg/kg
CCC(=O)N1CCN(CCCC(c2ccc(F)cc2)c2ccc(F)cc2)CC1 [Compound 1, 1-Ethylcarbonyl-4-[4,4-(di-p-fluorophenyl)butyl]-piperazine hydrochloride]	1 mg/kg	1.8 mg/kg	2.8 mg/kg	0.5 mg/kg	–
CC(C)C(=O)N1CCN(CCCC(c2ccc(F)cc2)c2ccc(F)cc2)CC1 [Compound 2]	–	–	–	1.1 mg/kg	–
O=C(C1CC1)N1CCN(CCCC(c2ccc(F)cc2)c2ccc(F)cc2)CC1 [Compound 3]	2.6 mg/kg	3.7 mg/kg	1.4 mg/kg	0.8 mg/kg	–
CCC(=O)N1CC(C)N(CCC(c2ccccc2)c2ccccc2)CC1C (stereo not shown) [Compound A1]	–	–	–	4.2 mg/kg	–
CN1C(=O)CN=C(c2ccccc2)c2cc(Cl)ccc21 [Diazepam]	–	–	–	–	activity on isolation-induced aggressive behaviour (male NMRI mice [3]): active

Source: patent US4492698A, “Diphenylbutyl-1-acylpiperazines” (priority 1980, dated 1985)
